For assay [1], the target named is T1, AChE from Electrophorus electricus (Electrophorus electricus, UniProt O42275).
T1 construct: purchased Sigma-Aldrich
Nature of the assay: Ellman's assay, AChE inhibition. The format is biochemical.

In a further assay the target is T2, BuChE from horse serum (Equus caballus, UniProt P81908).
T2 construct: BuChE from horse serum (2.5 units/1 mL); purchased Sigma-Aldrich; host or cells: horse serum
Nature of the assay: biochemical. How it is done:
The activity against acetylcholinesterases from electric eel and butyrylcholinesterase from horse serum was determined in spectrophotometric Ellman’s assay.
The activity against cholinesterases was determined in spectrophotometric Ellman’s assay.
The reaction took place in 100 mM phosphate buffer, pH 8.0, containing 0.25 units of AChE or BuChE, 0.3 mmol 5,5′-dithio-bis-(2-nitrobenzoic) acid (DTNB) and 0.45 mmol acetylthiocholine or butyrylthiocholine as substrates. The tested compounds were incubated with the enzyme for 5 min at 25 °C prior to starting the reaction by adding the substrate.

Assay [2] deals with T1, AChE from Electrophorus electricus. The following applies: Ellman's assay, compounds 7-9 ref 39, cited from earlier work.
Setting [3] is: AChE IC50, Ellman's assay, electric eel AChE, pH 8.0, 25 °C.
The mark [4] stands for this setting: Ellman's assay, horse serum BuChE, pH 8.0, 25 °C, n.a.: not active, read-out: BuChE IC50.
[5] abbreviates: electric eel AChE, read-out: AChE IC50.

The source of these data is PMC3634507 (International Journal of Molecular Sciences, 2013).

Values joined by “and” are separate entries in the source; they are usually repeats but may differ in a detail not shown here. Identical values can stand only once. Like-named read-outs stand apart in the source and are kept apart here.

T1 sequence (O42275 24-633): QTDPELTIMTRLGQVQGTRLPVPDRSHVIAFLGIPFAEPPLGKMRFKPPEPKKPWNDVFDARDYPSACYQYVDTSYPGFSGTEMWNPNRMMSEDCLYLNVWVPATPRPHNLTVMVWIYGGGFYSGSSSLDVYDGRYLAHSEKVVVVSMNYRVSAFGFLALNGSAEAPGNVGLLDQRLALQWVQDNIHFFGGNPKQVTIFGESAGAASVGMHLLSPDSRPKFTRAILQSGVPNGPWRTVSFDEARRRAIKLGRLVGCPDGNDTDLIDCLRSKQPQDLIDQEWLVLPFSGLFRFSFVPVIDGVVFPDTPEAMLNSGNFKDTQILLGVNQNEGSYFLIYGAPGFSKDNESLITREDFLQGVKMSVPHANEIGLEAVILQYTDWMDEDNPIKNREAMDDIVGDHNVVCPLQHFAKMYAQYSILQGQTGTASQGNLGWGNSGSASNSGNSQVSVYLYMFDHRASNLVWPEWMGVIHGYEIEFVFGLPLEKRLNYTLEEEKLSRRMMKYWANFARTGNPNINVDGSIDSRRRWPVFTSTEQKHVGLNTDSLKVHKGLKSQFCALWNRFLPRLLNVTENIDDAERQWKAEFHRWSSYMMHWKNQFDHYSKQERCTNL
T2 sequence (P81908 whole entry): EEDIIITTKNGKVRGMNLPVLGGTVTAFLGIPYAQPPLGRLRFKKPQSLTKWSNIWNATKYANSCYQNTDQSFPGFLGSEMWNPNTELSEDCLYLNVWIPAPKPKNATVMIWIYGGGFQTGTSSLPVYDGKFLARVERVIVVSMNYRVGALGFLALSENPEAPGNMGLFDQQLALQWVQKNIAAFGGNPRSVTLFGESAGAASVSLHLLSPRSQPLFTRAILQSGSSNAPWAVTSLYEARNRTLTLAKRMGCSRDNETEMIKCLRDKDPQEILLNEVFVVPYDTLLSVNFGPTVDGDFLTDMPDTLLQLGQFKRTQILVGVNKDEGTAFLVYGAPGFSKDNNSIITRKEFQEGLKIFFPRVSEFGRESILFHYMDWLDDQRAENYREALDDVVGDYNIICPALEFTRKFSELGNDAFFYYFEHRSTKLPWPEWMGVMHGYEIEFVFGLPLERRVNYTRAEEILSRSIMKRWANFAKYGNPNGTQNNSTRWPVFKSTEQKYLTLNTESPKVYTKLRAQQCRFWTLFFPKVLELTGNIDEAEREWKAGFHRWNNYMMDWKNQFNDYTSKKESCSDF

The IC50 is the concentration at which inhibition is half-maximal. As to `O=C1c2ccccc2C(=O)N1CCCCCCNC1CCN(Cc2ccccc2)CC1` [Compound 2, 2-(6-(1-Benzylpiperidin-4-ylamino)hexyl)isoindoline-1,3-dione], the half-inhibitory concentration (IC50) was found to be 53.7 µM in assay [1] (setting [3]) and 24.5 µM at BuChE from horse serum (setting [4]).
Regarding `O=C1c2ccccc2C(=O)N1CCCCCCNCc1ccccc1` [Compound 4, 2-(6-(Benzylamino)hexyl)isoindoline-1,3-dione], the IC50 came out at 0.33 µM in assay [1] (setting [3]) and 0.33 µM in assay [1] (IC50 AChE, Ellman's assay).
`O=C1c2ccccc2C(=O)N1CCCCCCNC1CCN(Cc2cccc(Cl)c2)CC1` [Compound 3, 2-(6-(1-(3-Chlorobenzyl)piperidin-4-ylamino)hexyl)isoindoline-1,3-dione]: the results for the IC50 (in assay [1] (setting [3]); at BuChE from horse serum) were 44 µM and 7.66 µM, respectively.
For `CCN(CC)CCCCCCCN1C(=O)c2ccccc2C1=O` [Compound 8, 2-(7-diethylaminoheptyl)-isoindoline-1,3-dione], the IC50 in assay [2] (setting [5]) and in assay [2] (read-out: IC50 AChE) was 1.07 µM each time.
Take `O=C1c2ccccc2C(=O)N1CCCNC1CCN(Cc2ccccc2)CC1` [Compound 1, 2-(3-(1-Benzylpiperidin-4-ylamino)propyl)isoindoline-1,3-dione]: the concentration for half-maximal inhibition (IC50) in assay [1] (setting [3]) worked out at 18.2 µM; on BuChE from horse serum (setting [4]), 22.8 µM.
On to `O=C1c2ccccc2C(=O)N1CCCCCNCc1ccccc1F` [Compound 6, 2-(5-(2-fluorobenzylamino)pentyl)isoindoline-1,3-dione], for which the IC50 in assay [1] (setting [3]) was 0.0872 µM; in assay [1] (IC50 AChE, Ellman's assay) it was 0.087 µM and 0.0872 µM.
For `CCN(CC)CCCCCCN1C(=O)c2ccccc2C1=O` [Compound 9, 2-(6-diethylaminohexyl)-isoindoline-1,3-dione], the IC50 in assay [2] (setting [5]) and in assay [2] (read-out: IC50 AChE) was 1.23 µM throughout.
Consider `O=C1c2ccccc2C(=O)N1CCCCCNCc1ccccc1` [Compound 5, 2-(5-(Benzylamino)pentyl)isoindoline-1,3-dione], for which the IC50 in assay [1] (setting [3]) stood at 0.17 µM; in assay [1] (IC50 AChE, Ellman's assay), 0.17 µM.
